# Data from patent US8759549B2, “Compound extracted from Antrodia cinnamomea and pharmaceutical composition comprising the same” (priority 2010, dated 2014).
# Like-named read-outs stand apart in the source and are kept apart here.
# Assays:
# [1] = test system: HT29 human colorectal cancer cell line; test: In vitro anti-cancer activity, HT29 human colorectal cancer cells; assay type: cell-based; settings: HT-29
# Protocol: (§1) The anti-cancer effect compound of formula (2) and compounds (3) and (4) were evaluated using the HT29 and Colo205 human colorectal cancer cell lines.
# (§2) Human colorectal cancer cells HT29 and Colo205 were plated in a 96-well plate, at a concentration of 1×10^4-5 cells/well. The human colorectal cancer cells were incubated at 37° C. with 5% CO2 overnight. These cancer cells were washed three times with a serum free medium or a phosphate buffer solution (PBS) the next day. The compound of Formula (2) and Compounds (3) and (4) were added to the HT29 and Colo205 human colorectal cancer cells respectively. The experiment was performed three times and the average IC50 value was calculated.
# [2] = test system: Colo205 human colorectal cancer cell line; test: In vitro anti-cancer activity, Colo205 human colorectal cancer cells; assay type: cell-based; settings: COLO 205
# Protocol: as §1, §2
# [3] = HT29 human colorectal cancer cells, average of three experiments, FIG. 6, read-out: IC50
# [4] = Colo205 human colorectal cancer cells, average of three experiments, FIG. 7, read-out: IC50
"IC50 [1, 3] [µM]","IC50 [2, 4] [µM]",Structure (SMILES),IC50 ([1]; Homo sapiens) [µM],IC50 ([2]; Homo sapiens) [µM]
66,9,"C=C(C)C#Cc1c(C)c(OC)c2c(c1OC)OCO2 [formula (2), 1,2-methylenedioxy-3,6-bismethoxy-4-(3-methyl-3-alkene-1-butyne)-5-methylbenzene]",,
> 100,> 100,COc1cc(C)c(OC)c2c1OCO2 [Compound (4)],,
,,C=C(C)C#Cc1c(C)c(OC)c(OC)c(OC)c1OC [compound (3)],59,42
